Source: patent US11466013B2 (Betta Pharmaceuticals Co., LTD, priority 2018, dated 2022)

Tests used:
[1] = system: HCT 116 cells; assay: Cell proliferation assay (HCT 116), Cell-titer Glo; assay type: cell-based; details: Homo sapiens, 120 h incubation
Method: (§1) The HCT 116 cells were paved in a 96-well plate at 1200 cells, 160 μL/well. After incubating overnight, the compound solutions of gradient concentration was prepared, and 40 μL of DMSO solution of the test compound of each concentration was added to the cells of each well. The final concentration of the compound was 30000, 10000, 3333.3, 1111.1, 370.4, 123.5, 41.2, 13.7, 4.6, 0 nM (the final concentration of DMSO was 0.5%). 5% CO2 was incubated for 120 h at 37° C. 50 μL of Cell-titer Glo working solution was added to each well, shaked and mixed, and incubated at room temperature for 10 minutes. The multi-functional microplate reader read the luminescence value, and converted the luminescence value reading into inhibition percentage. Inhibition percentage=(maximum value−reading)/(maximum value−minimum value)*100.
The “maximum value” was the DMSO control, the “minimum value” indicated the cell-free control group.
(§2) Graphpad Prism software was used to perform curve fitting and obtain IC50 value.

[2] = target: ERK2 (Homo sapiens, UniProt P28482); assay: Kinase assay (Caliper, FAM-labeled peptide), ERK2; assay type: biochemical
Chain of ERK2 (P28482 whole entry): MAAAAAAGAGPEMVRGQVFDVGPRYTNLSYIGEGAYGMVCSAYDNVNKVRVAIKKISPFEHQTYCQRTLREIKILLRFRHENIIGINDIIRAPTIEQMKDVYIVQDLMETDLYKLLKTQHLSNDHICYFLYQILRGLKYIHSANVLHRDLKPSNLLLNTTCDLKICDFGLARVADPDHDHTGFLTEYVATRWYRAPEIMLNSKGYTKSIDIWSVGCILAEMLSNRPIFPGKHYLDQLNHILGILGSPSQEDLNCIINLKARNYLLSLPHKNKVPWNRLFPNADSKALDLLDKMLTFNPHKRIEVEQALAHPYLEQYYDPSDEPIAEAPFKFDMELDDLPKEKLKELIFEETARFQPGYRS
How it was run: (§3)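 Kinase preincubated 10 min at room temperature with serially diluted compound before FAM-labeled peptide plus ATP added; reaction run at 28 °C, then stopped. Substrate conversion read by Caliper mobility shift, normalized to DMSO and low controls, curve-fitted for IC50.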

[3] = system: COLO205 cells; assay: Cell proliferation assay (COLO205), Cell-titer Glo; assay type: cell-based; details: Homo sapiens, COLO 205, 120 h incubation
Method: as §1, with “COLO205” for “The HCT 116”, “spread into” for “paved in”, “135 μL/well at 2000 cells.” for “1200 cells, 160 μL/well.”, “overnight,” for “overnight, the”, “added 15” for “40”, “concentration” for “concentration was added”
The “maximum value” was the DMSO control, the “minimum value” indicates the cell-free control group.
as §2

[4] = target: ERK1 (Homo sapiens, UniProt P27361); assay: Kinase assay (Caliper, FAM-labeled peptide), ERK1; assay type: biochemical
Chain of ERK1 (P27361 whole entry): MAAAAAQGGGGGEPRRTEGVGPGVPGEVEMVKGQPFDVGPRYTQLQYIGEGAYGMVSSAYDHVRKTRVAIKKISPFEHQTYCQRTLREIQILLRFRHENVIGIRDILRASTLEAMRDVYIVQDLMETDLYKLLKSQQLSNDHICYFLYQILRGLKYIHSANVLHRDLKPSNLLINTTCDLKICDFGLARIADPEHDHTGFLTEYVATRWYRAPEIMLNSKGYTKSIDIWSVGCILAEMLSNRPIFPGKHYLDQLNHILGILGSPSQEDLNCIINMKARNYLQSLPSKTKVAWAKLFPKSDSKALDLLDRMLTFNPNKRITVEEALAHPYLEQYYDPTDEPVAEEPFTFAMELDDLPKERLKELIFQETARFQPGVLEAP
How it was run: as §3

IC50 [1] [nM]	IC50 [2] [nM]	IC50 [3] [nM]	IC50 [4] [nM]	SMILES
24.6	–	–	–	Cn1nccc1Nc1cc(-c2cc3n(c2)CCN(Cc2cc(F)ccc2CO)C3=O)c(C(F)(F)F)cn1 [Example 161, (5-fluoro-2-(hydroxylmethyl)benzyl)-7-(2-((1-methyl-1h-pyrazole-5-yl)amino)-5-(trifluoromethyl)pyridin-4-yl)-3,4-dihydropyrrolo [1,2-a]pyrazine-1(2H)-one]
18.8	0.62	15.4	–	COC[C@H]1Cn2cc(-c3nc(Nc4ccnn4C)ncc3C(F)(F)F)cc2C(=O)N1Cc1cc(F)ccc1CO [Example 163, (R)-2-(5-fluoro-2-(hydroxymethyl)benzyl)-3-(methoxymethyl)-7-(2-((1-methyl-1h-pyrazole-5-yl)amino)-5-(trifluoromethyl)pyrimidin-4-yl)-3,4-dihydropyrrolo[1,2-a] pyrazine-1(2H)-one]
7.6	0.3	14.3	–	Cc1cnc(Nc2ccnn2C)cc1-c1cc2n(c1)CCN(Cc1cc(F)ccc1CO)C2=O [Example 152, 2-(5-fluoro-2-(hydroxymethyl)benzyl)-7-(5-methyl-2-((1-methyl-1h-pyrazole-5-yl)amino)pyridine-4-yl)-3,4-dihydropyrrolo[1,2-a] pyrazine-1(2H)-one]
19.9	–	19	–	COC[C@H]1Cn2cc(-c3cc(Nc4ccnn4C)ncc3C(F)(F)F)cc2C(=O)N1Cc1cc(F)ccc1CO [Example 100, (R)-2-(5-fluoro-2-(hydroxymethyl)benzyl)-3-(methoxymethyl)-7-(2-((1-methyl-1h-pyrazole-5-yl)amino)-5-(trifluoromethyl)pyridin-4-yl)-3,4-dihydropyrrolo [1,2-a]pyrazine-1(2H)-one]
52.3	–	–	–	Cn1nccc1Nc1cc(-c2cc3n(c2)CCN(Cc2cc(F)cc(F)c2)C3=O)c(Cl)cn1 [Example D10, 7-(5-chloro-2-((1-methyl-1h-pyrazole-5-yl)amino)pyridine-4-yl)-2-(3,5-difluorobenzyl)-3,4-dihydropyrrolo[1,2-a] pyrazine-1(2H)-one, reference compound]
27	1.4	–	1.1	COC[C@H]1Cn2cc(-c3cc(N[C@H]4CC[C@H](O)CC4)ncc3Cl)cc2C(=O)N1Cc1cc(F)ccc1CO [Example 71, (R)-7-(5-chloro-2-(((1R,4R)-4-hydroxycyclohexyl)amino)pyridine-4-yl)-2-(5-fluoro-2-(hydroxymethyl)benzyl)-3-(methoxymethyl)-3,4-dihydropyrrolo[1,2-a] pyrazine-1(2H)-one]
10.7	0.89	11.4	–	Cn1nccc1Nc1cc(-c2cc3n(c2)CCN(Cc2cc(F)c(F)cc2CO)C3=O)c(Cl)cn1 [Example 160, 7-(5-chloro-2-((1-methyl-1h-pyrazole-5-yl)amino)pyridine-4-yl)-2-(4,5-difluoro-2-(hydroxymethyl)benzyl)-3,4-dihydropyrrolo[1,2-a] pyrazine-1(2H)-one]
5.3	–	20.4	–	COC[C@H]1Cn2cc(-c3nc(NC4CCOCC4)ncc3Cl)cc2C(=O)N1Cc1cc(F)ccc1CO [Example 130, (R)-7-(5-chloro-2-((tetrahydro-2h-pyran-4-yl)amino)pyrimidin-4-yl)-2-(5-fluoro-2-(hydroxymethyl)benzyl)-3-(methoxymethyl)-3.4-dihydropyrrolo[1,2-a] pyrazine-1(2H)-one]
9	–	10.7	–	COC[C@H]1Cn2cc(-c3cc(Nc4ccnn4C)ncc3Cl)cc2C(=O)N1Cc1cccc(F)c1CO [Example 98, (R)-7-(5-chloro-2-((1-methyl-1h-pyrazole-5-yl)amino)pyridine-4-yl)-2-(3-fluoro-2-(hydroxymethyl)benzyl)-3-(methoxymethyl)-3,4-dihydropyrrolo[1,2-a] pyrazine-1(2H)-one]
23	–	–	–	COC[C@H]1Cn2cc(-c3cc(Nc4conc4C)ncc3Cl)cc2C(=O)N1Cc1cc(F)ccc1CO [Example 83, (R)-7-(5-chloro-2-((3-methylisoxazole-4-yl)amino)pyridine-4-yl)-2-(5-fluoro-2-(hydroxymethyl)benzyl)-3-(methoxymethyl)-3,4-dihydropyrrolo[1,2-a] pyrazine-1(2H)-one]
21.2	–	–	–	Cn1nccc1Nc1cc(-c2cc3n(c2)CCN(Cc2ccc(F)cc2CO)C3=O)c(Cl)cn1 [Example 149, 7-(5-chloro-2-((1-methyl-1h-pyrazole-5-yl)amino)pyridine-4-yl)-2-(4-fluoro-2-(hydroxymethyl)benzyl)-3,4-dihydropyrrolo[1,2-a] pyrazine-1(2H)-one]
11.6	–	6.4	–	COC[C@H]1Cn2cc(-c3cc(Nc4ccnn4C)ncc3C)cc2C(=O)N1Cc1cc(F)ccc1CO [Example 102, (R)-2-(5-fluoro-2-(hydroxymethyl)benzyl)-3-(methoxymethyl)-7-(5-methyl-2-((1-methyl-1h-pyrazole-5-yl)amino)pyridine-4-yl)-3,4-dihydropyrrolo[1,2-a] pyrazine-1(2H)-one]
10.7	–	13.6	–	CCn1nccc1Nc1cc(-c2cc3n(c2)C[C@H](COC)N(Cc2cc(F)ccc2CO)C3=O)c(Cl)cn1 [Example 52, (R)-7-(5-chloro-2-((1-ethyl-1H-pyrazol-5-yl)amino)pyridin-4-yl)-2-(5-fluoro-2-(hydroxymethyl)benzyl)-3-(methoxymethyl)-3,4-dihydropyrrolo[1,2-a]pyrazine-1(2H)-one]
53.6	–	–	–	Cn1nccc1Nc1cc(-c2cc3n(c2)CCN(Cc2cccc(F)c2)C3=O)c(Cl)cn1 [Example D9, 7-(5-chloro-2-((1-methyl-1h-pyrazole-5-yl)amino)pyridine-4-yl)-2-(3-fluorobenzyl)-3,4-dihydropyrrolo[1,2-a] pyrazine-1(2H)-one, reference compound]
83	–	72.4	–	COC[C@H]1Cn2cc(-c3nc(Nc4ccnn4C)ncc3C)nc2C(=O)N1Cc1ccc(F)c(F)c1 [AZD0364, reference compound]
6.3	0.7	12.9	–	Cn1nccc1Nc1cc(-c2cc3n(c2)CCN(Cc2cc(F)cc(F)c2CO)C3=O)c(Cl)cn1 [Example 148, 7-(5-chloro-2-((1-methyl-1h-pyrazole-5-yl)amino)pyridine-4-yl)-2-(3,5-difluoro-2-(hydroxymethyl)benzyl)-3,4-dihydropyrrolo[1,2-a] pyrazine-1(2H)-one]
18	–	21.7	–	COC[C@H]1Cn2cc(-c3cc(Nc4ccnn4C)ncc3Cl)cc2C(=O)N1Cc1ccc(F)cc1CO [Example 99, (R)-7-(5-chloro-2-((1-methyl-1h-pyrazole-5-yl)amino)pyridine-4-yl)-2-(4-fluoro-2-(hydroxymethyl)benzyl)-3-(methoxymethyl)-3,4-dihydropyrrolo[1,2-a] pyrazine-1(2H)-one]
9.5	–	17.8	–	Cn1nccc1Nc1cc(-c2cc3n(c2)CCN(Cc2cccc(F)c2CO)C3=O)c(Cl)cn1 [Example 150, 7-(5-chloro-2-((1-methyl-1h-pyrazole-5-yl)amino)pyridine-4-yl)-2-(3-fluoro-2-(hydroxymethyl)benzyl)-3,4-dihydropyrrolo[1,2-a] pyrazine-1(2H)-one]
16.2	–	–	–	COC[C@H]1Cn2cc(-c3cc(Nc4ccnn4C(F)F)ncc3Cl)cc2C(=O)N1Cc1cc(F)ccc1CO [Example 54, (R)-7-(5-chloro-2-((1-(difluoromethyl)-1H-pyrazol-5-yl)amino)pyridin-4-yl)-2-(5-fluoro-2-(hydroxymethyl)benzyl)-3-(methoxymethyl)-3,4-dihydropyrrolo[1,2-a]pyrazine-1(2H)-ketone]
–	1.4	36.1	1.3	CC(C)Nc1cc(-c2cc3n(n2)CC(CO)(CCl)CN(Cc2ccccc2CO)C3=O)c(Cl)cn1 (stereo not shown) [Example 8, 2-(5-Chloro-2-(isopropylamino)pyridin-4-yl)-7-(chloromethyl)-7-(hydroxymethyl)-5-(2-(hydroxymethyl)benzyl)-5,6,7,8-tetrahydro-4H-pyrazolo[1,5-a][1,4]diazepine-4-one]
–	0.9	77.5	1	CC(C)Nc1cc(-c2cnc(C(=O)NCc3cc(F)ccc3CO)s2)c(Cl)cn1 [Example 2, 5-(5-Chloro-2-(isopropylamino)pyridin-4-yl)-N-(5-fluoro-2-(hydroxymethyl)benzyl)thiazole-2-formamide]
